Measured values taken from patent publication US20130261146A1, “NITRIC OXIDE AND ITS BIOMEDICAL SIGNIFICANCE” (The Research Foundation of State University of New York, priority 2010, published 2013).

Assays:
E. coli bacteria = experiment: Inhibition of bacterial growth in culture; assay type: cell-based; conditions: E. coli incubated 5 and 24 hours at 37° C, streaked on LB-agar overnight
Description: Example 9 illustrates the anti-microbial effects of extracts including the active chemical agents on cells. A dried, powdered, formulation of a 1:1 mixture of the wheat grass extract and white willow bark extract prepared in Example 1 above was tested for its ability to inhibit bacterial growth in culture. The formulation was reconstituted in 10 ml of LB broth (Amersham Biosciences, Inc.). The broth was then inoculated with E. coli bacteria and incubated for 5 and 24 hours at 37° C. 20 μl of the cultures were streaked on LB-agar plates and incubated overnight at 37° C. […] An additional control experiment was conducted with the known antibacterial agent, SNAP. One μg/ml SNAP was added to LB broth. The broth was then inoculated with E. coli bacteria and incubated for 5 and 24 hours at 37° C. 20 μl of the cultures were streaked on LB-agar plates and incubated overnight at 37° C. Bacterial growth was decreased in the SNAP culture at 5 and 24 hours, as compared to the control.

[1] = test system: SK-N-MC (ATCC # HBT-10) cells; experiment: NO determination of SK-N-MC cells treated with plant extractions; assay type: cell-based; conditions: 6 mg of crude extraction
Description: Employing the isolation and purification techniques described above, a variety of herbaceous plants were analyzed for their ability to release cNOS—derived nitric oxide in the pedal ganglia and in publicly available SK-N-MC (ATCC # HBT-10) and PC-12 (ATCC # CRL 1721) cells. In Table I, a plus sign indicates detection of at least 1 nM nitric oxide. […] In Table II, results in the SK-N-MC cell line are set forth; the concentration of plant material used and the quantity of NO detected is indicated. […] In Table III, results are set forth for the identical procedures performed using the ganglia cell line. The types of plant materials employed are indicated, for example flowers, leaves, roots, rhizomes, stems, bark. Where not specified, leaves were employed.

SMILES	bacterial growth versus control (LB broth alone) (E. coli bacteria)	Results (nM), NO determination of SK-N-MC cells [1]
CC(=O)NC(C(=O)O)C(C)(C)SN=O (racemic) [SNAP, S-nitroso-N-acetyl-DL-penicillamine]	decreased	
O=c1c(O)c(-c2ccc(O)c(O)c2)oc2cc(O)cc(O)c12 [Quercetine]		14 nM
